From ChEMBL document CHEMBL1133809, “Synthesis of N-propargylphenelzine and analogues as neuroprotective agents” (Bioorg Med Chem Lett, 2001)

How the values were obtained:
[1] = target: T1, Amine oxidase [flavin-containing] B (Rattus norvegicus, UniProt P19643); experiment: In vitro ability to inhibit Monoamine oxidase B activity in rat whole brain in vitro
T1 sequence (P19643 whole entry): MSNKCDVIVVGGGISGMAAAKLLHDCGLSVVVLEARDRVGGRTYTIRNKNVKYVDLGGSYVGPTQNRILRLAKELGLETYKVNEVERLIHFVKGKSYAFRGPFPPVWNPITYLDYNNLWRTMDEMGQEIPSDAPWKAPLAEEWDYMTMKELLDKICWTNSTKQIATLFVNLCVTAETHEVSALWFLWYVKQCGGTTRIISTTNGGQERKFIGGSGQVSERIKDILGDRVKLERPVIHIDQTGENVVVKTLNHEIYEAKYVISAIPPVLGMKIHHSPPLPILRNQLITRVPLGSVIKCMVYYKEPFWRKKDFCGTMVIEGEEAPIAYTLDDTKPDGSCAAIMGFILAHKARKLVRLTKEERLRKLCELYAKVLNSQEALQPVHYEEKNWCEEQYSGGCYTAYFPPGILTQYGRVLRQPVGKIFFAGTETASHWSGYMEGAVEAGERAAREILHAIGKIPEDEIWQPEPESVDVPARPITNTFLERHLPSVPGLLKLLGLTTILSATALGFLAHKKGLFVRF

[2] = target: T2, Amine oxidase [flavin-containing] A (Rattus norvegicus, UniProt P21396); experiment: In vitro ability to inhibit Monoamine oxidase A activity in rat whole brain in vitro
T2 sequence (P21396 whole entry): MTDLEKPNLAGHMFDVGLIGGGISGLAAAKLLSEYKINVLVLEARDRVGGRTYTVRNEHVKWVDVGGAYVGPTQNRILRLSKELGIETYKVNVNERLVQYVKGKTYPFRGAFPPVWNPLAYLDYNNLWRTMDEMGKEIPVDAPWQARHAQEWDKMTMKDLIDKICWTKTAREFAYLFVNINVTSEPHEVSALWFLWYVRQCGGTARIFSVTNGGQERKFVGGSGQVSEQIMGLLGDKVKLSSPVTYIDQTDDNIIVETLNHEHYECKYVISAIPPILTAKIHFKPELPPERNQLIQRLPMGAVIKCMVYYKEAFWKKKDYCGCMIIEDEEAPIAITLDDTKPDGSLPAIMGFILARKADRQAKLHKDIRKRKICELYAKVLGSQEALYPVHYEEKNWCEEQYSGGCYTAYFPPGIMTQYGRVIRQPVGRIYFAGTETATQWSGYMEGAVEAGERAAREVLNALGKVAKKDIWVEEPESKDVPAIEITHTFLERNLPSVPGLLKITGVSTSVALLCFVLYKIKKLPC

Mus musculus = organism: Mus musculus; experiment: Compound tested for the prevention of DSP- 4- induced depletion of noradrenaline (NA) in mouse hippocampus ex vivo; assay type: functional

Compound | IC50 [1] | IC50 [2] | NA restoration (Mus musculus)
C#CCNNC/C=C/c1ccccc1 | 10.2 µM | 7.9 µM | -7.21%
C#CCN(N)c1ccccc1 | 1.01 µM | 11.3 µM | -49.82%
C#CCN(N)C/C=C/c1ccccc1 | 3.53 µM | 1.17 µM | -39.2%
C#CCNNCc1ccccc1 | 2.84 µM | 0.362 µM | 31.74%
C#CCN(N)CCc1ccccc1 | 0.0765 µM | 2.04 µM | 56.38%
C#CCNNCCc1ccccc1 | 3.18 µM | 1.85 µM | 76.83%
C#CCN(N)Cc1ccccc1 | 0.121 µM | 1.56 µM | 33.58%
NNCCc1ccccc1 [PHENELZINE] | 0.0763 µM | 0.03 µM | 43.48%
C#CCN(C)[C@H](C)Cc1ccccc1 [SELEGILINE] | – | – | 79.71%
